Patent US4552882A, “7-(1-Pyrrolyl) derivatives of 1-ethyl-1,4-dihydro-4-oxoquinoline-3-carboxylic acids and 1-ethyl-1,4-dihydro-4-oxo-1,8-naphthyridine-3-carboxylic acids and their use as antimicrobial agents” (Provesan, SA, priority 1983, dated 1985)
≈ marks a conversion by molar mass, not a printed value.

Columns and labels:
Proteus morganii CHSP 16 = assay: MIC in vitro; assay type: cell-based; details: Morganella morganii, CHSP16, Dextrose agar, 37° C., 20 hours
Protocol: (§1) (G. L. Daquet and Y. A. Chabbect, Techniques en bacteriologie (Bacteriological techniques), vol. 3, Flammarion Medecine Sciences, Paris, 1972 and W. B. Hugo and A. D. Rusell, Pharmaceutical Microbiology, Blackwell Scientific Publications, London, (1977)). Antibiotic medium no. 1 (seed agar) (Oxoid CM 327) Tryptone-soya broth (Oxoid CM 129) Ringer's physiological solution 1/4 (oxoid BR 52) Dextrose agar (BBL-11165) 0.1 N NaOH "Proteus morganii" CHSP 16 Each of the microorganisms is seeded by streaking in tubes of Antibiotic medium No. 1 (seed agar), which are then incubated at 37° C. for 20 hours. Using a culture loop, the cultures are then seeded in tryptone-soyabroth and incubated at 37° C. for 20 hours. The culture obtained is diluted to 1/4 with Ringer's physiological solution, so as to obtain a standardized suspension of 10^7 -10^9 cfu/ml for each organism. Starting from a solution of 1,000 μg/ml in 0.1 N NaOH, each product is diluted in Dextrose agar (previously melted and maintained at 50° C.), with successive dilutions so as to obtain the following concentrations: 64--32--16--8--4--2--1--0.5--0.25--0.125 μg of derivative/ml medium. For each product, the solution of each concentration is subsequently distributed into Petri dishes 10 cm in diameter, with 10 ml of medium per dish and the same number of dishes as microorganisms to be tested. As soon as the medium has cooled, the dishes are seeded with the inoculations using 0.4 ml of inoculation per dish. They are spread with a Driglasky loop and the supernatant is removed. The seeded dishes are incubated at 37° C. for 20 hours.

[1] = tested on: Salmonella typhimurius AMES 98; assay: MIC in vitro; assay type: cell-based, Salmonella typhimurium; details: AMES98, Dextrose agar, 37° C., 20 hours
Protocol: (§2) (G. L. Daquet and Y. A. Chabbect, Techniques en bacteriologie (Bacteriological techniques), vol. 3, Flammarion Medecine Sciences, Paris, 1972 and W. B. Hugo and A. D. Rusell, Pharmaceutical Microbiology, Blackwell Scientific Publications, London, (1977)).
(§3) Antibiotic medium no. 1 (seed agar) (Oxoid CM 327)
(§4) Tryptone-soya broth (Oxoid CM 129)
(§5) Ringer's physiological solution 1/4 (oxoid BR 52) Dextrose agar (BBL-11165) 0.1 N NaOH
"Salmonella typhimurium" AMES 98
(§6) Each of the microorganisms is seeded by streaking in tubes of Antibiotic medium No. 1 (seed agar), which are then incubated at 37° C. for 20 hours. Using a culture loop, the cultures are then seeded in tryptone-soyabroth and incubated at 37° C. for 20 hours. The culture obtained is diluted to 1/4 with Ringer's physiological solution, so as to obtain a standardized suspension of 10^7 -10^9 cfu/ml for each organism.
(§7) Starting from a solution of 1,000 μg/ml in 0.1 N NaOH, each product is diluted in Dextrose agar (previously melted and maintained at 50° C.), with successive dilutions so as to obtain the following concentrations: 64--32--16--8--4--2--1--0.5--0.25--0.125 μg of derivative/ml medium.
(§8) For each product, the solution of each concentration is subsequently distributed into Petri dishes 10 cm in diameter, with 10 ml of medium per dish and the same number of dishes as microorganisms to be tested.
(§9) As soon as the medium has cooled, the dishes are seeded with the inoculations using 0.4 ml of inoculation per dish. They are spread with a Driglasky loop and the supernatant is removed. The seeded dishes are incubated at 37° C. for 20 hours.

[2] = tested on: Citrobacter freundii ATCC 11606; assay: MIC in vitro; assay type: cell-based; details: ATCC11606, Dextrose agar, 37° C., 20 hours
Protocol: as §1, with “"Citrobacter freundii" ATCC 11606” for “"Proteus morganii" CHSP 16”

gram-positive cocci = assay: in vitro antimicrobial activity compared to pipemidic acid; assay type: cell-based
Protocol: as §2, §3, §4, §5, §6, §7, §8, §9

For `CCn1cc(C(=O)O)c(=O)c2ccc(-n3cccc3)cc21` [Example 1, 7-(1-pyrrolyl)-1-ethyl-1,4-dihydro-4-oxo-3-quinolinecarboxylic acid], the MIC (Proteus morganii CHSP 16) was 8 µg/mL (≈ 28.3 µM), the MIC [1] was 0.5 µg/mL (≈ 1.77 µM) and the MIC [2] was 16 µg/mL (≈ 56.7 µM). For the same molecule, the “"in vitro" activity compared to pipemidic acid” value (gram-positive cocci) was “greater than that of pipemidic acid”.

For `CCn1cc(C(=O)O)c(=O)c2cc(F)c(-n3cccc3)cc21` [Example 2, 6-fluoro-7-(1-pyrrolyl)-1-ethyl-1,4-dihydro-4-oxo-3-quinolinecarboxylic acid], the MIC (Proteus morganii CHSP 16) was 2 µg/mL (≈ 6.66 µM), the MIC [1] was under 0.125 µg/mL and the MIC [2] was 8 µg/mL (≈ 26.6 µM). For the same molecule, the “"in vitro" activity compared to pipemidic acid” value (gram-positive cocci) was “greater than that of pipemidic acid”.

`CCn1cc(C(=O)O)c(=O)c2ccc(-n3cccc3)nc21` [Example 3, 1-ethyl-1,4-dihydro-4-oxo-7-(1-pyrrolyl)-1,8-naphthyridine-3-carboxylic acid] was tested, and the MIC (Proteus morganii CHSP 16) was 8 µg/mL (≈ 28.2 µM), the MIC [1] was 0.5 µg/mL (≈ 1.76 µM) and the MIC [2] was 32 µg/mL (≈ 113 µM). The “"in vitro" activity compared to pipemidic acid” value (gram-positive cocci) was “a greater activity”.

Molecule `CCn1cc(C(=O)O)c(=O)c2cc(F)c(-n3cccc3)nc21` [Example 4, 1-ethyl-1,4-dihydro-4-oxo-6-fluoro-7-(1-pyrrolyl)-1,8-naphthyridine-3-carboxylic acid] has an MIC (Proteus morganii CHSP 16) of 4 µg/mL (≈ 13.3 µM), an MIC [1] of 0.12 µg/mL (≈ 0.398 µM) and an MIC [2] of 4 µg/mL (≈ 13.3 µM). The “"in vitro" activity compared to pipemidic acid” value (gram-positive cocci) was “greater than that of pipemidic acid”.

Work on `CCn1cc(C(=O)O)c(=O)c2cnc(N3CCNCC3)nc21` [Pipemidic acid, reference compound] yielded an MIC (Proteus morganii CHSP 16) of 8 µg/mL (≈ 26.4 µM), an MIC [1] of 4 µg/mL (≈ 13.2 µM) and an MIC [2] of 4 µg/mL (≈ 13.2 µM).
